Assay results reported in patent publication US4696920A, “Certain 2-substituted 1,3-propylidenediphosphonate derivatives, pharmaceutical compositions containing them and their use as antihypertensive agents” (priority 1984, dated 1987).
“Also recorded” adds a separate entry of the source.

Tests used:
[1] = test system: isolated rat atrium (atrium rate); experiment: Chronotropic activity in isolated rat atrium; design: species or system rat (male SHR, Okamoto-Aoki); conditions: 5.0 × 10^-6 M, mean ± SEM, read-out: Decrease in atrium rate (% pretest)
Protocol: Spontaneously hypertensive male rats (SHR) (Okamoto-Aoki strain) were anesthetized with Pentobarbital (Nembutal Abbott, 60 mg/kg, i.p.). The hearts were quickly excised and both atria were dissected free from adjacent cardiac tissues. The atria were immediatly placed in a 50 ml Krebs-Ringer bath with the following composition (mM): NaCl, (120.0); KCl, (5.63); CaCl2, (2.0); MgCl2, (2.10); NaHCO3, (25.0); Glucose, (9.7) (pH 7.4). The solution was continuously bubbled with a O2 /CO2 mixture (95/5) and maintained at 37±1° C. The atrium was fixed to an optical displacement transducer (IITC, USA) under a resting tension of 1 g in order to measure atrial rate. The preparation was allowed to equilibrate for 40 min then cumulative dose-response curves were determined for each test compound (0.5-5 μMole/l). Maximum effect was normally obtained within 30-40 min. for each concentration.
Stock solutions of the 1,3-diphosphonates were generally prepared in 0.9% saline and water insoluble compounds were prepared in 50% ethanol. […] When tested at the concentration of 5.0×10^-6 M a decrease in atrium rate of more than 5% was considered as significant.
All data are presented as % decrease of initial atrium rate (mean values±SEM). A potent negative chronotropic effect was found with all compounds tested (table 3).

[2] = test system: mean blood pressure in rat; experiment: Acute intravenous hypotensive activity in anesthetized rats; format: in vivo, rat (male Wistar); conditions: Rattus norvegicus, iv, read-out: Decrease in mean blood pressure (% pretest)
Protocol: Male Wistar rats were anesthetized with Pentobarbital (Nembutal, 60 mg/kg i.p.) and heparinized (5 mg/kg i.p.). After tracheotomy the right carotid was cannulated (catheter PE 50); blood pressure was measured with a pressure transducer (Statham P 23 db) and recorded on a polygraph (Beckman).
Animals received 0.5 and 1.5 mg/kg of the test compounds. Less than 100 μl of test compounds dissolved in 0.9% saline were injected in the jugular vein. Highly water insoluble compounds were suspended in 2% Tween-80. Injection of the vehicle alone had no detectable hypotensive effect.
Results presented are expressed as percent decrease in initial mean blood pressure (Mean±SEM).

[3] = test system: rat trachea contraction induced by KCl depolarization; experiment: KCl-induced rat trachea contraction; design: species or system rat (male SHR, Okamoto-Aoki); conditions: for activity at 1 µM: Rattus norvegicus, 40 min, read-out: Contraction (% max.); for activity on KCl-induced trachea contraction (in words): final concentration 1.0 μM
Protocol: Spontaneously hypertensive male rats (SHR) Okamoto-Aoki Strain, weighing 300-400 g were used in this study. They were killed by bleeding after Pentobarbital anesthesia (Nembutal, Abbott Co, 40 mg/kg). Their entire trachea was quickly removed and dissected free of fat and connective tissue in Krebs-Ringer solution. A strip (4 mm×40 mm), obtained by spirally cutting the trachea, was immediately suspended in a 50 ml Krebs-Ringer solution and continuously bubbled with a O2 /CO2 (95/5) mixture. Bath temperature was maintained at 37±1° C. The composition (mM) of the Krebs-Ringer solution modified by Nghiem, was as follows: NaCl, (118.0); KCl, (4.7); CaCl2, (2.5); MgCl2, (1.18); NaHCO3, (12.5); KH2 P04, (1.18); glucose, (5.5) in bidistilled water (pH 7.4). Each strip was equilibrated under initial tension (1.5-2 g) for 1-2 hours and the bath solution changed every 30 min. A contractile or relaxant response was isometrically measured with a force-displacement transducer (Ugo-Basile) and recorded on a polygraph (Beckman).
After equilibration, KCl was added to the bath at 65 mM final concentration. This concentration produced maximum trachea contraction. Under these conditions, a plateau phase showing a tonic sustained contraction was reached within 30 minutes. Drugs were added 30 minutes after the plateau phase has been reached (final concentration=1.0 μM). […] Recordings of the residual trachea contraction were made 40 minutes after drug addition to the bathing fluid. The initial KCl induced contraction was taken as the maximum KCl response (100%). Results were expressed as % of maximal contraction. Nifedipine, Prenylamine, Flunarizine and Diltiazem were used as reference standards to validate this assay.
All 1,3-diphosphonates and drugs were dissolved in saline (0.9% NaCl) except when water insoluble, then the compounds were dissolved in 2% ethanol. The final concentration of ethanol used has been shown not to interfere with the assay.
Results are expressed as mean values±SEM, the Student's t-test was used for statistical analysis.

[4] = test system: calcium channel binding site for [^3 H]-Nitrendipine (rat brain membranes); experiment: [^3 H]-Nitrendipine binding to rat brain membranes; design: species or system rat (male Wistar); conditions: for modulation of [^3 H]-Nitrendipine binding (in words) / Specifically bound [^3 H]-Nitrendipine % of control value / Bound ^3 H at 1.0 μM / Bound ^3 H at 0.1 μM: Table 1a; for Specifically bound [^3 H]-Nitrendipine % of control value: compound concentration 1.0 μM; for Bound ^3 H at 1.0 μM / Bound ^3 H at 0.1 μM: ratio of [^3 H]-Nitrendipine bound at 1.0 and 0.1 μM compound
Protocol: (§1) Diltiazem hydrochloride was a generous gift from Goedecke A. G.
Suitable dilutions were made in 50 mM Tris-HCl buffer (pH 7.4) containing 150 mM NaCl and 1 mM CaCl2. The ethanol concentration in the final assay never exceeded 0.1%.
(§2) The purity of the radioligand and of the various agents tested was monitored by thin layer chromatography on silica gel plates.
(§3) The following procedure was adapted from Bellemann et al (Proc. Nat. Acad. Sci. 80, 2356, 1983), and Gould et al (Proc. Nat. Acad. Sci. 79, 3656, 1982).
(§4) Adult male Wistar rats weighing 250-300 g were anesthetized with carbon dioxide prior to decapitation. The brain was removed then immersed in ice-cold 0.32M sucrose and washed 2-3 times with fresh solution. Cerebral cortex was minced and homogenized (Potter-Elvehjem homogenizer) in 10 volumes of ice-cold sucrose solution. The homogenate was centrifuged (4° C.) at 1000×g for 15 minutes. The resulting supernatant was then centrifuged at 90000×g (30 minutes) and the pellet was washed twice with 20 ml ice-cold 50 mM Tris-HCl pH 7.4.
(§5) The final pellet was resuspended in 50 mM Tris-HCl pH 7.4/150 mM NaCl/1 mM CaCl2 to give a protein concentration of 4 mg/ml.
(§6) The membrane suspension was kept on ice until used. Binding assays were performed in subdued light to prevent dihydropyridine breakdown. Membrane protein (400 μg/tube) was incubated in 50 mM Tris-HCl buffer (pH 7.4)/150 mM NaCl/1 mM CaCl2 with the indicated concentrations of radioligand and test compounds or known calcium antagonists, in a total volume of 2 ml. After the indicated time intervals, the reaction was terminated by rapid filtration through Whatman GF/B glass fiber filters (2.4 cm diameter) on a Millipore filter holder. The assay tube was rinsed with 2 ml ice-cold 50 mM Tris-HCl pH (7.4) and the precipitate was further washed with 2×5 ml of the same buffer.
(§7) Filters were dried under a heat lamp and were extracted with 10 ml of liquid scintillation cocktail (Toluene/Triton X-100, 2/1 containing 4 g Omnifluor/1) prior to tritium determination at 48% counting efficiency.
(§8) Assays were performed in duplicate or triplicate.
(§9) Data were expressed as percent specific [^3 H]-Nitrendipine binding relative to the established control value.
(§10) Compound activity in the [^3 H]-Nitrendipine binding assay was evaluated by using the following criteria:
(§11) 1. [^3 H]-Nitrendipine binding at 1.0 μM compound final concentration was either below 95% or above 105% of the control value determined in absence of compound.
2. […] This ratio is indicative of a dose response relationship within the compound concentration range tested, when the value differs appreciably from 1.0.

[5] = test system: blood pressure in hypertensive rats; experiment: Oral hypotensive activity in hypertensive rats (tail cuff); format: in vivo, rat (spontaneously hypertensive, SHR); conditions: Table 5
Protocol: Some selected compounds were given orally to conscious SHR rats and blood pressure was monitored using the tail cuff method. A marked and sustained hypotensive activity was measured in all treated rats. Results are given 2 hours post dose (Table 5). These studies illustrate the obvious potential use of orally administered 1,3-diphosphonates for the clinical treatment of hypertension in man.

[6] = test system: [^3 H]-PN-200 110 (dihydropyridine) binding site of calcium channel, rat brain membranes; experiment: [^3 H]-PN-200 110 binding to rat brain membranes; design: species or system rat (male Wistar); conditions: for Specifically bound [^3 H]-PN-200 110 % of control value: compound concentration 1.0 μM; for Specifically bound [^3 H]-PN-200 110 % of control value / Bound ^3 H at 1.0 μM / Bound ^3 H at 0.1 μM: Table 1b; for Bound ^3 H at 1.0 μM / Bound ^3 H at 0.1 μM: ratio of [^3 H]-PN-200 110 bound at 1.0 and 0.1 μM compound; for potency in [^3 H]-PN200 110 binding (in words): text on Table 1b
Protocol: as §1
Water insoluble compounds were dissolved in absolute ethanol to give 10 mM or 2.5 mM stock solutions. Suitable dilutions were made in 50 mM Tris-HCl buffer (pH 7.4) containing 150 mM NaCl and 1 mM CaCl2. The ethanol concentration in the final assay never exceeded 0.1%.
as §2, §3, §4, §5, §6, §7, §8, §9, §10, §11
2. The ratio obtained by dividing the amount of specifically found [^3 H]-Nitrendipine at 1.0 μM compound final concentration by the value obtained at 0.1 μM test compound, was smaller than 0.9 or greater than 1.1. This ratio is indicative of a dose response relationship within the compound concentration range tested, when the value differs appreciably from 1.0.
Note: In some experiments [^3 H]-PN200 110, a new and commercially available specific dihydropyridine was used instead of [^3 H]-Nitrendipine.

[7] = test system: drug receptor sites associated with calcium channels; conditions: known calcium antagonists; cited from earlier work

SMILES	oral hypotensive activity (in words) [5]	Specifically bound [^3 H]-PN-200 110 % of control value [6]	Bound ^3 H at 1.0 μM / Bound ^3 H at 0.1 μM [6]	potency in [^3 H]-PN200 110 binding (in words) [6]	effect on [^3 H]-Nitrendipine binding (in words) [7]	other results
CC(C)OP(=O)(CC(Cc1ccccc1)CP(=O)(OC(C)C)OC(C)C)OC(C)C [Compound 55, Tetraisopropyl 2-benzyl-1,3-propylidenephosphonate]						inhibition at 5 µM [1]: 17.5 ± 4.6%; inhibition in vivo at 0.5 mg/kg [2]: 28.2 ± 0.7%; inhibition in vivo at 1.5 mg/kg [2]: 31.1 ± 6.4%; activity at 1 µM [3]: 73 ± 1%; activity on KCl-induced trachea contraction (in words) [3]: potent pharmacological activity; modulation of [^3 H]-Nitrendipine binding (in words) [4]: activators; Specifically bound [^3 H]-Nitrendipine % of control value [4]: 156 % of control value; Bound ^3 H at 1.0 μM / Bound ^3 H at 0.1 μM [4]: 1.292
CCCCOP(=O)(CC(CCOc1ccccc1)CP(=O)(OCCCC)OCCCC)OCCCC [Compound 79, Tetrabutyl 2-(2-phenoxyethyl)-1,3-propylidenediphosphonate]	decrease blood pressure as markedly as the marketed calcium antagonists used as references	3 % of control value	0.211			activity at 1 µM [3]: 60.3 ± 9.6%; activity on KCl-induced trachea contraction (in words) [3]: potent pharmacological activity; modulation of [^3 H]-Nitrendipine binding (in words) [4]: strong inhibitors; Specifically bound [^3 H]-Nitrendipine % of control value [4]: 0 % of control value; Bound ^3 H at 1.0 μM / Bound ^3 H at 0.1 μM [4]: 0.000
CCCCOP(=O)(CC(CCOc1ccc(F)cc1)CP(=O)(OCCCC)OCCCC)OCCCC [Compound 89]	decrease blood pressure as markedly as the marketed calcium antagonists used as references	6 % of control value	0.310	as potent as Nifedipine		
CCCCOP(=O)(CC(CCOc1ccc(Cl)cc1)CP(=O)(OCCCC)OCCCC)OCCCC [Compound 90]	decrease blood pressure as markedly as the marketed calcium antagonists used as references	4 % of control value	0.243	as potent as Nifedipine		
CCCCOP(=O)(CC(CCOc1ccc(Br)cc1)CP(=O)(OCCCC)OCCCC)OCCCC [Compound 91]	decrease blood pressure as markedly as the marketed calcium antagonists used as references	15 % of control value	0.420			
CCCCOP(=O)(CC(CCOc1ccc(OC)cc1)CP(=O)(OCCCC)OCCCC)OCCCC [Compound 92]	decrease blood pressure as markedly as the marketed calcium antagonists used as references	0 % of control value	0.000	as potent as Nifedipine		
CCCCOP(=O)(CC(CCOc1cccc(C(F)(F)F)c1)CP(=O)(OCCCC)OCCCC)OCCCC [Compound 93]	decrease blood pressure as markedly as the marketed calcium antagonists used as references	0 % of control value	0.000	as potent as Nifedipine		
CC(Cc1ccccc1)NCCC(c1ccccc1)c1ccccc1 (stereo not drawn) [Prenylamine, reference compound]					reduce [^3 H]-Nitrendipine binding affinity	% [^3 H]-Nitrendipine bound ([4]; reference standards at 1 μM): 57%
COc1ccc(CCN(C)CCCC2(c3ccc(OC)c(OC)c3)S(=O)(=O)CCCS2(=O)=O)cc1OC [Tiapamil]					reduce [^3 H]-Nitrendipine binding affinity	
COc1ccc(CCN(C)CCCC(C#N)(c2ccc(OC)c(OC)c2)C(C)C)cc1OC (stereo not drawn) [Verapamil]					inhibitors; also recorded: reduce [^3 H]-Nitrendipine binding affinity	
